Measured values published in patent US20120244568A1, “LABEL-FREE RIGID CELL ASSAY METHOD” (priority 2011, published 2012).
Where two headings read alike, the source gives them in different places.

Legend:
Assay type in all cases: cell-based
[1] = system: Saccharomyces cerevisiae S288C yeast cells; assay: label-free DRCA multi-wavelength SPR yeast cell assay (response to a substance); settings: 10 micromolar; for effect on yeast cell growth measured at short penetration depth: 660 nm laser source; for effect on yeast cell growth measured at short penetration depth / effect on yeast cell growth: FIG. 4; for effect on yeast cell growth: 4,000 cells per well, pre-incubated 60 minutes; for effect on yeast cell growth compared with the other modulators: consistent at three different penetration depths, versus fluconazole and ketaconazole
Description: Yeast cells were cultured on an YPD agar plate at 28° C. for 16 hours and kept at 4° C. until just prior to use. From the agar plate, yeast cells were collected and seeded into YPD liquid medium and cultured at 28° C. for 8 hours. The cells were then diluted with its liquid medium to obtain a cell density of about 4,000 cells/mL as a starting point for cell inhibition studies. For the detection of yeast cells, the cells were collected at the late logarithm phase and collected by centrifugation at 10,000 g for 10 minutes. Cells were further washed to remove debris and/or high index material such as glucose.
A DRCA™ system equipped with three lasers having wavelengths of, for example, 660 nm, 980 nm, and 1480 nm, was selected for the study. The system allows for simultaneously measuring a cell at three different wavelengths. The output measures the angular change of the surface plasmon resonance (SPR). The angular change indicates a mass change within the defined sensing region. The depth of the sensing region depends on the wavelength of the selected illuminating laser as listed, for example, in Table 1.
A user-assembled assay plate was first assembled with a gold coated glass slide and an 80-well holey plate (cut from a 384-well holey plate). Yeast cells were seeded into the wells with or without a compound and incubated in the instrument for approximately 60 minutes at 22° C. The cell responses were then measured and data were collected according to the description in the aforementioned U.S. Ser. No. 12/956,464.
A procedure for accomplishing a label-free rigid cell assay response to a substance in accord with the present disclosure can include, for example: • 1. clean and assemble an 80-well holey plate on top of a gold chip; • 2. sterile the assembled chip by exposure to high intensity UV light for around 5 minutes; • 3. grow yeast cells until the middle or late logarithm stage, preferably the former for an active inoculum; • 4. turn on the DRCA optical system to warm-up the lasers for, e.g., 1 hour; • 5. collect yeast cell by centrifugation at, e.g., 10,000 g for 10 minutes; • 6. wash the cells with at least 5× fold volume of the pellet using a saline buffer, such as phosphate saline buffer; • 7. vortex the cell solution using, for example, a bench top vortex mixer; • 8. collect yeast cells by centrifugation at e.g. 10,000 g for 10 minutes; • 9. repeat steps 6 to 8 for approximately three (3) times to remove high refractive index materials, such as, sugar residues, cell debris, or like materials, and mixtures thereof; • 10. count yeast cell number using, e.g., a hemocytometer • 11. prepare assay buffer with or without a substance (compound/bio-molecule); • 12. load assay buffer with or without a substance (compound/bio-molecule) to each well of the cell chamber and let it equilibrate for, e.g., 60 minutes; • 13. record the baselines for, e.g., 15 minutes; • 14. add a small amount of yeast cells, such as 4000 cells/mL to each well; • 15. monitor the yeast cell response, for example, to an added substance, with a plurality of wavelengths and depths; • 16. record the data; and • 17. analyze the data by calculating the difference between the end points and baselines.
Four modulator compounds were used to study of their effect on yeast cells. A user assembled (i.e., a virtual) assay plate was seeded with 4,000 cells per well. A modulator was added to a test well at 10 micromolar and then pre-incubated for 60 minutes. Each modulator was tested in three replicates. The well without a modulator was a positive control. […] However, the difference between the modulators and controls was more substantial when measured at the longest penetration depth using the 1480 nm laser source. […] Accordingly, the disclosed method can be useful for drug screening, drug development, and like applications.
Time course of a modulator effect. The effect of an amphotericin compound on yeast cells was monitored in real time under ambient condition. […]

[2] = system: Saccharomyces cerevisiae S288C yeast cells; assay: as above
[3] = system: Saccharomyces cerevisiae S288C yeast cells; assay: yeast cell count by hemocytometer of DRCA assay samples; settings: with amphotericin treatment; FIG. 8; untreated sample about 12,000,000 cells
Source text: (§1) The samples from the aforementioned DRCA assay were further analyzed with a spectrophotometer (Agilent Technologies, Wilmington, Del.) and hemocytometer (Thermo Fisher Scientific, Hudson, N.H.). […] With amphotericin treatment, the cell number was about zero, compared to about 12,000,000 cells in the untreated sample, see FIG. 8 (yeast cell count by hemocytometer) for amphotericin (80) and no amphotericin (82) at each of three wavelengths.

[4] = system: Saccharomyces cerevisiae S288C yeast cells; assay: turbidometric determination with a visible light spectrophotometer (absorbance OD580) of DRCA assay samples; settings: 10 micromolar, FIG. 7
Source text: FIG. 7 charts absorbance readings of a conventional turbidometric determination using a visible light spectrophotometer, for cultured yeast cells without amphotericin (left; amphotericin at 0 micromolar) and contacted with amphotericin (right; amphotericin at 10 micromolar). Turbidity can be used as an indirect measure of cell growth. Using a standard curve generated with serial dilutions of known number cells, one can estimate cell density in a turbid cell culture.
as §1

SMILES	effect on yeast cell growth measured at short penetration depth [1]	effect on yeast cell growth [1]	effect on yeast cell growth compared with the other modulators [1]	IC50 ([2]; read-out: IC50 (inhibition curve, yeast cells), 660 nm wavelength, about 4000 cells/well, 3,000 nM serially diluted at 3 fold, R^2=0.9072) [nM]	IC50 ([2]; read-out: IC50 (inhibition curve, yeast cells), 980 nm wavelength, about 4000 cells/well, 3,000 nM serially diluted at 3 fold, R^2=0.9486) [nM]	IC50 ([2]; read-out: IC50 (inhibition curve, yeast cells), 1480 nm wavelength, about 4000 cells/well, 3,000 nM serially diluted at 3 fold, R^2=0.9817) [nM]	cell number [3]	change in response over time (time course) ([1]; about 16 hours, any given penetration depth (660, 980, 1480 nm), FIG. 5)	cell growth by turbidity [4]	OD580 absorbance reading ([4]; untreated sample about 12)
CC(=O)N1CCN(c2ccc(OCC3COC(Cn4ccnc4)(c4ccc(Cl)cc4Cl)O3)cc2)CC1 (stereo not drawn) [ketaconazole]	not detectable	had an effect on yeast cell growth								
OC(Cn1cncn1)(Cn1cncn1)c1ccc(F)cc1F [fluconazole]	not detectable	had an effect on yeast cell growth								
Clc1ccccc1C(c1ccccc1)(c1ccccc1)n1ccnc1 [clotrimazole]		had an effect on yeast cell growth	more noticeable effect							
C[C@@H]1[C@H](O)[C@@H](C)/C=C/C=C/C=C/C=C/C=C/C=C/C=C/[C@H](O[C@@H]2O[C@H](C)[C@@H](O)[C@H](N)[C@@H]2O)C[C@@H]2O[C@](O)(C[C@@H](O)C[C@@H](O)[C@H](O)CC[C@@H](O)C[C@@H](O)CC(=O)O[C@H]1C)C[C@H](O)[C@H]2C(=O)O [amphotericin, Amphotericin]		had an effect on yeast cell growth	more noticeable effect	374	271	158	about zero	almost no change in response	cell growth was inhibited	about zero
